14 molecules from patent US9718785B2, “1,3-Disubstituted cyclopentane derivatives” (MERCK PATENT GMBH, priority 2013, dated 2017) can be followed below.

For the assay, the target named is T1, human recombinant full-length fatty acid synthase (FASN) (Homo sapiens, UniProt P49327).
T1 construct: 40 nM human recombinant full-length fatty acid synthase (produced in-house in SF9 cells); made in house; host or cells: SF9 insect cells
The assay is described as follows: Biochemical activity testing of human fatty acid synthase FASN (NADPH fluorescence intensity enzyme assay). The note with it: human recombinant FASN, enzyme assay. An excerpt:
Biochemical Activity Testing of Human Fatty Acid Synthase FASN
Fatty acid synthase FASN is a multifunctional enzyme with seven catalytic activities thereby synthesising long chain fatty acids especially palmitoyl-CoA in the presence of co-factor NADPH starting from the substrates acetyl-CoA and malonyl-CoA. The reductive synthesis is realized by the oxidation of NADPH to NADP. Since NADPH has a high fluorescence intensity quantum yield compared to NADP with excitation at 340 nm and emission at 460 nm, the reaction can be monitored via the decrease in fluorescence intensity. The biochemical FASN activity testing was performed as 384 well two-time-point kinetic fluorescence intensity assay format in Greiner low volume medium binding 384-well black microtiter plates in a total assay volume of 8 μl and was used for high throughput screen. In each well 3 μl 40 nM human recombinant full-length fatty acid synthase (produced in-house in SF9 cells) were dispensed in the following assay buffer: 50 mM potassium phosphate buffer pH 7.0, 0.005% (w/v) BSA, 2 mM Glutathione, 0.02% Tween-20. Then 2 μl of 200 μM NADPH in assay buffer were added, followed by the addition of the test compounds in 10 dilution concentrations starting with 30 μM (final concentration) to get a final DMSO content of 1% (v/v). The mixture was incubated for at least 15 min at room temperature. After the pre-incubation the enzymatic reaction was started by the addition of 2 μl substrate solution (80 μM acetyl-CoA, 240 μM malonyl-CoA). A first fluorescence intensity measurement (time point one) was performed with an Envision multimode reader (Perkin Elmer LAS Germany GmbH) at excitation wavelength 340 nm (lamp mode) and emission wavelength 460 nm. The reaction was incubated for 30 minutes at room temperature. After this the fluorescence intensity was measured again in the Envision using the same parameters as described above (second time point measurement). The data were analysed by subtracting the first time point measurement value from the second time point measurement value (after the enzymatic reaction). The differences of the emission signals were determined. These reflect directly the conversion rate of NADPH. The full value used was the inhibitor-free reaction. A pharmacological zero value was used like GSK837149A (Sigma-Aldrich) in a final concentration of 5-10 μM. The inhibitory values (IC50) were determined using either the program Symyx Assay Explorer® or Condosseo® from GeneData.

T1 sequence (P49327 whole entry): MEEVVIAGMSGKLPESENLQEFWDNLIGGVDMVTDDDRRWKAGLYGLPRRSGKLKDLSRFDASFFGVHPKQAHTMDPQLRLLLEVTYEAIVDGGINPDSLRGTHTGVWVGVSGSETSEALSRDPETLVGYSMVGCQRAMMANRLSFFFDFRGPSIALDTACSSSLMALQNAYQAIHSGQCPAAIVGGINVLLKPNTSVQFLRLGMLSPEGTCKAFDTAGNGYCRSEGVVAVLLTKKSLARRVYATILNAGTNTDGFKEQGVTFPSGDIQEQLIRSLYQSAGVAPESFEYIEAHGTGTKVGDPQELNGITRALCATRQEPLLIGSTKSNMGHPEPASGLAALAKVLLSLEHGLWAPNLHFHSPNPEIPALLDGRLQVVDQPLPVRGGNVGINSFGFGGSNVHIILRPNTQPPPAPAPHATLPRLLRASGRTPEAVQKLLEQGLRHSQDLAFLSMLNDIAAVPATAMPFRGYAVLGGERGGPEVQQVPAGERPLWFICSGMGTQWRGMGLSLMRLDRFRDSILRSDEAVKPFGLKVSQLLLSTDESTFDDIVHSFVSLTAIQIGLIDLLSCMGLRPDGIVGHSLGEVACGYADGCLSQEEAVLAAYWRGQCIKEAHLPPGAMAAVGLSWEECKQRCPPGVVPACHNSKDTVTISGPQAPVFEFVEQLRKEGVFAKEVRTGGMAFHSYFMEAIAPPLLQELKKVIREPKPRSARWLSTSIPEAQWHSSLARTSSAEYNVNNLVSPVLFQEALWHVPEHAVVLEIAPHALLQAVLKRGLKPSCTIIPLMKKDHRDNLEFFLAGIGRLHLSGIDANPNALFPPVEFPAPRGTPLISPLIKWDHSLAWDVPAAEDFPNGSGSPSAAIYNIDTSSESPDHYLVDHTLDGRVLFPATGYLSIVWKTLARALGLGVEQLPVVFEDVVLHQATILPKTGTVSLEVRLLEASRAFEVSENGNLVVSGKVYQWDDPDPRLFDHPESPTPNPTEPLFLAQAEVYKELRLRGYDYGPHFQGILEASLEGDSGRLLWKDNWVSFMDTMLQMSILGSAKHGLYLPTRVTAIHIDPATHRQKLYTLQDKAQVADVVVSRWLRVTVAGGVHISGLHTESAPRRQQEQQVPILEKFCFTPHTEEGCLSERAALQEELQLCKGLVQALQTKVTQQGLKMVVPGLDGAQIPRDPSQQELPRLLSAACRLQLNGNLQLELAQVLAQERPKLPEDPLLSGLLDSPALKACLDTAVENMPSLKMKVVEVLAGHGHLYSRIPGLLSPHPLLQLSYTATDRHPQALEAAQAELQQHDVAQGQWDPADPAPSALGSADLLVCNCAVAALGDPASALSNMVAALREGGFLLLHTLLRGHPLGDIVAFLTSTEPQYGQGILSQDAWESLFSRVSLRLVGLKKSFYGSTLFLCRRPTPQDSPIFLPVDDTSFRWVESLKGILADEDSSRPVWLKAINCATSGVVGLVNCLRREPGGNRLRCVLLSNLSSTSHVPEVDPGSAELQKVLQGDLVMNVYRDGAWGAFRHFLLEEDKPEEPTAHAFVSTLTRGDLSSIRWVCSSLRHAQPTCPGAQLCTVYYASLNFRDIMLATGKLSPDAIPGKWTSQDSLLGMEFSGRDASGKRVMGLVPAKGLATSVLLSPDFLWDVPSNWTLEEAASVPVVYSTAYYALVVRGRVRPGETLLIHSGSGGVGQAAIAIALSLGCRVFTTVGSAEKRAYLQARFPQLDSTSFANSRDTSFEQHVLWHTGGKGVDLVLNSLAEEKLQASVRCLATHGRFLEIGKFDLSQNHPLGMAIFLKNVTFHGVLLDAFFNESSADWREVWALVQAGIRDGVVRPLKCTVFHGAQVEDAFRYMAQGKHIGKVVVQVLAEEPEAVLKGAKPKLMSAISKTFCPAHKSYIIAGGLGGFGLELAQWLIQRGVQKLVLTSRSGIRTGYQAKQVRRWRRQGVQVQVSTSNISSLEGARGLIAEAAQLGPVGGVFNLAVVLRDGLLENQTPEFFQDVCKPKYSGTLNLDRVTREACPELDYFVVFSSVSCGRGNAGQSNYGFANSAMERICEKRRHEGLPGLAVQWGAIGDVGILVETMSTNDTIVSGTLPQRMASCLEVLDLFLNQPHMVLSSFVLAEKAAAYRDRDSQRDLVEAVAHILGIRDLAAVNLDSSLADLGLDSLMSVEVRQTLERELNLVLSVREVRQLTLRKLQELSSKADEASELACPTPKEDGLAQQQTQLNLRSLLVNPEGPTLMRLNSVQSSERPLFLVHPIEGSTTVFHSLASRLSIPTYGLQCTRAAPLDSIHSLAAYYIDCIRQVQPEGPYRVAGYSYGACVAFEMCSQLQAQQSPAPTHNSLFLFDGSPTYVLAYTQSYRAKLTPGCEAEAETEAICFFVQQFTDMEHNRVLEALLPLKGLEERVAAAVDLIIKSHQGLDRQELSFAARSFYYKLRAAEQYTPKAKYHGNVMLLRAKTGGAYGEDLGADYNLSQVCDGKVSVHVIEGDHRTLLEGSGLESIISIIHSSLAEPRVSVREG

For the molecule `CCNC(=O)[C@H]1CC[C@@H](n2cnnc2-c2ccc(-c3ccc(C#N)cc3)cc2)C1` [Compound A32, (1S,3R)-3-[3-(4′-cyano-biphenyl-4-yl)-[1,2,4]triazol-4-yl]-cyclopentanecarboxylic acid ethylamide], the IC50 was < 300 nM.
For `CCNC(=O)[C@H]1CC[C@@H](n2cnnc2-c2ccc(-c3nc4ccccc4s3)cc2)C1` [Compound A33, (1S,3R)-3-[3-(4-benzothiazol-2-yl-phenyl)-[1,2,4]triazol-4-yl]-cyclopentanecarboxylic acid ethylamide], the IC50 was < 300 nM.
For `CCNC(=O)[C@H]1CC[C@@H](n2cnnc2-c2ccc(-c3cccc4[nH]ncc34)cc2)C1` [Compound A35, (1S,3R)-3-{3-[4-(1H-indazol-4-yl)-phenyl]-[1,2,4]triazol-4-yl}-cyclopentanecarboxylic acid ethylamide], the 50% inhibitory concentration (IC50) was < 300 nM.
`CCC(=O)N[C@H]1CC[C@@H](n2cnnc2-c2ccc(-c3nc4ccccc4o3)cc2)C1` [Compound A37, N-{(1S,3R)-3-[3-(4-benzoxazol-2-yl-phenyl)-[1,2,4]triazol-4-yl]-cyclopentyl}-propionamide]: the half-maximal inhibitory concentration (IC50) is < 300 nM.
As to `CCC(=O)N[C@H]1CC[C@@H](n2cnnc2-c2ccc(-c3ccc(Cl)cc3)cc2)C1` [Compound A39, N-{(1S,3R)-3-[3-(4′-chloro-biphenyl-4-yl)-[1,2,4]triazol-4-yl]-cyclopentyl}-propionamide], the IC50 is < 300 nM.
With `CCC(=O)N[C@H]1CC[C@@H](n2cnnc2-c2ccc(-c3ccc(C#N)cc3)cc2)C1` [Compound A40, N-{(1S,3R)-3-[3-(4′-cyano-biphenyl-4-yl)-[1,2,4]triazol-4-yl]-cyclopentyl}-propionamide], the 50% inhibitory concentration (IC50) is < 300 nM.
For `CCC(=O)N[C@H]1CC[C@@H](n2cnnc2-c2ccc(-c3cccc4[nH]ncc34)cc2)C1` [Compound A42, N-((1S,3R)-3-{3-[4-(1H-indazol-4-yl)-phenyl]-[1,2,4]triazol-4-yl}-cyclopentyl)-propionamide], the IC50 was < 300 nM.
As to `CCC(=O)N[C@H]1CC[C@@H](n2cnnc2-c2ccc(-c3ccc4ncsc4c3)cc2)C1` [Compound A43, N-{(1S,3R)-3-[3-(4-benzothiazol-6-yl-phenyl)-[1,2,4]triazol-4-yl]-cyclopentyl}-propionamide], the IC50 is < 300 nM.
For the molecule `CCC(=O)N[C@H]1CC[C@@H](n2cnnc2-c2ccc(-c3ccc4cc[nH]c4c3)cc2)C1` [Compound A44, N-((1S,3R)-3-{3-[4-(1H-indol-6-yl)-phenyl]-[1,2,4]triazol-4-yl}-cyclopentyl)-propionamide], the concentration for half-maximal inhibition (IC50) is < 300 nM.
As for `CCC(=O)N[C@H]1CC[C@@H](n2nncc2-c2ccc(-c3ccc(C#N)cc3)cc2)C1` [Compound A58, N-{(1S,3R)-3-[5-(4′-Cyano-biphenyl-4-yl)-[1,2,3]triazol-1-yl]-cyclopentyl}-propionamide], the figure is < 300 nM.
Take `CCC(=O)N[C@H]1CC[C@@H](n2nncc2-c2ccc(-c3ccc4cc[nH]c4c3)cc2)C1` [Compound A59, N-((1S,3R)-3-{5-[4-(1H-Indol-6-yl)-phenyl]-[1,2,3]triazol-1-yl}-cyclopentyl)-propionamide]: the IC50 is < 300 nM.
As for `CCC(=O)N[C@H]1CC[C@@H](n2nncc2-c2ccc(-c3ccc4ncsc4c3)cc2)C1` [Compound A60, N-{(1S,3R)-3-[5-(4-Benzothiazol-6-yl-phenyl)-[1,2,3]triazol-1-yl]-cyclopentyl}-propionamide], the figure is < 300 nM; as for `CCC(=O)N[C@H]1CC[C@@H](n2nncc2-c2ccc(-c3ccc4c(cnn4C)c3)cc2)C1` [Compound A61, N-((1S,3R)-3-{5-[4-(1-Methyl-1H-indazol-5-yl)-phenyl]-[1,2,3]triazol-1-yl}-cyclopentyl)-propionamide], < 300 nM.
Next, `CCC(=O)N[C@H]1CC[C@@H](n2nncc2-c2ccc(-c3ccc(C#N)cc3F)cc2)C1` [Compound A62, N-{(1S,3R)-3-[5-(4′-Cyano-2′-fluoro-biphenyl-4-yl)-[1,2,3]triazol-1-yl]-cyclopentyl}-propionamide]: < 300 nM.
